US10273503B2, “Compounds and methods for enhancing viral gene transfer to human hematopoietic cells” (UNIVERSTÉ DE MONTRÉAL, priority 2015, dated 2019)

test system: human CD34+ cells; assay: Expansion of human CD34+ cells (EC50, CD34+CD45RA- cell count); format: cell-based; conditions: Homo sapiens, concentration that results in a 50% increase in CD34+CD45RA- cell count compared to vehicle cultures (DMSO); read-out: Biological data (EC50)*

Structure (SMILES)	EC50 [nM]
COC(=O)c1ccc2c(c1)[nH]c1ncnc(NCCCN3CCCCC3)c12 [Cmpd 2]	250 to 500
COC(=O)c1ccc2c(c1)[nH]c1ncnc(NCCCN3CCCC3)c12 [Cmpd 9]	100 to 250
COC(=O)c1ccc2c(c1)[nH]c1ncnc(NCCCCN(C)C)c12 [Cmpd 10]	250 to 500
COC(=O)c1ccc2c(c1)[nH]c1ncnc(NCCN(C)C)c12 [Cmpd 11]	100 to 250
COC(=O)c1ccc2c(c1)[nH]c1ncnc(NCCCN(C)C)c12 [Cmpd 12]	500 to 1000
COC(=O)c1ccc2c(c1)[nH]c1ncnc(NCCN3CCCCC3)c12 [Cmpd 13]	250 to 500
COC(=O)c1ccc2c(c1)[nH]c1ncnc(NCCCN3CCCCC3C)c12 (stereo not drawn) [Cmpd 14]	100 to 250
COC(=O)c1ccc2c(c1)[nH]c1ncnc(NCCCN)c12 [Cmpd 15]	250 to 500
COC(=O)c1ccc2c(c1)[nH]c1ncnc(NCC(O)CN3CCCCC3)c12 (stereo not drawn) [Cmpd 16]	250 to 500
COC(=O)c1ccc2c(c1)[nH]c1ncnc(NC3CCNCC3)c12 [Cmpd 17]	500 to 1000
COC(=O)c1ccc2c(c1)[nH]c1ncnc(NCCC3CCNCC3)c12 [Cmpd 18]	250 to 500
COC(=O)c1ccc2c(c1)[nH]c1ncnc(NCCCN3CCOCC3)c12 [Cmpd 19]	> 1000
COC(=O)c1ccc2c(c1)[nH]c1ncnc(N3CCC(N4CCCCC4)CC3)c12 [Cmpd 20]	100 to 250
Cn1nnc(-c2ccc3c(c2)[nH]c2ncnc(NCCCN4CCCCC4)c23)n1 [Cmpd 21]	100 to 250
COC(=O)c1ccc2c(c1)[nH]c1nc(Cc3cccnc3)nc(NCCCN3CCCCC3)c12 [Cmpd 22]	< 100
COC(=O)c1ccc2c(c1)[nH]c1nc(Cc3ccncc3)nc(NCCCN3CCCCC3)c12 [Cmpd 23]	250 to 500
COC(=O)c1ccc2c(c1)[nH]c1nc(Cc3cnccn3)nc(NCCCN3CCCCC3)c12 [Cmpd 24]	500 to 1000
COC(=O)c1ccc2c(c1)[nH]c1nc(Cc3ccsc3)nc(NCCCN3CCCCC3)c12 [Cmpd 25]	< 100
COC(=O)c1ccc2c(c1)[nH]c1nc(Cc3cc(Br)cc(I)c3)nc(NCCCN3CCCCC3)c12 [Cmpd 26]	< 100
COC(=O)c1ccc2c(c1)[nH]c1nc(Cc3ccc4ccccc4c3)nc(NCCCN3CCCCC3)c12 [Cmpd 27]	100 to 250
COC(=O)c1ccc2c(c1)[nH]c1nc(C(OC)c3ccccc3)nc(NCCCN3CCCCC3)c12 (stereo not drawn) [Cmpd 28]	< 100
COC(=O)c1ccc2c(c1)[nH]c1nc(C(C)c3ccccc3)nc(NCCCN3CCCCC3)c12 (stereo not drawn) [Cmpd 31]	< 100
COC(=O)c1ccc2c(c1)[nH]c1nc(Cc3cccc(C4(C(F)(F)F)N=N4)c3)nc(NCCCN3CCCCC3)c12 [Cmpd 32]	< 100

Structure (SMILES)	EC50 [nM]
COC(=O)c1ccc2c(c1)[nH]c1nc(Cc3ccccc3)nc(NCCCN3CCCCC3)c12 [Cmpd 34]	< 100
COC(=O)c1ccc2c(c1)[nH]c1nc(Cc3cccc(Br)c3)nc(NCCCN3CCCCC3)c12 [Cmpd 35]	< 100
COC(=O)c1ccc2c(c1)[nH]c1nc(Cc3ccccc3C)nc(NCCCN3CCCCC3)c12 [Cmpd 36]	< 100
COC(=O)c1ccc2c(c1)[nH]c1nc(Cc3ccc(C)cc3)nc(NCCCN3CCCCC3)c12 [Cmpd 37]	< 100
COC(=O)c1ccc2c(c1)[nH]c1nc(Cc3cccc(OC)c3)nc(NCCCN3CCCCC3)c12 [Cmpd 38]	< 100
COC(=O)c1ccc2c(c1)[nH]c1nc(Cc3cccc(C(=O)C(F)(F)F)c3)nc(NCCCN3CCCCC3)c12 [Cmpd 39]	< 100
Cn1nnc(-c2ccc3c(c2)[nH]c2nc(Cc4ccccc4)nc(NCCCN4CCCCC4)c23)n1 [Cmpd 41]	< 100
N#Cc1ccc2c(c1)[nH]c1nc(Cc3ccccc3)nc(NCCCN3CCCCC3)c12 [Cmpd 43]	250 to 500
CN(C)C1CCC(Nc2nc(Cc3ccccc3)nc3[nH]c4cc(-c5nnn(C)n5)ccc4c23)CC1 (stereo not drawn) [Cmpd 46]	< 100
COC(=O)c1ccc2c(c1)[nH]c1nc(Cc3ccccc3)nc(OCCCN3CCCCC3)c12 [Cmpd 47]	500 to 1000
COC(=O)c1ccc2c(c1)[nH]c1nc(Cc3ccccc3)nc(NCCCN(C)CCOCCOCCO)c12 [Cmpd 49]	< 100
COC(=O)c1ccc2c(c1)[nH]c1nc(Cc3ccccc3)nc(NCCCN(C)CCCN)c12 [Cmpd 50]	< 100
COC(=O)c1ccc2c(c1)[nH]c1nc(Cc3ccccc3)nc(NCC(O)CN3CCCCC3)c12 (stereo not drawn) [Cmpd 51]	< 100
C#CCOC(CNc1nc(Cc2ccccc2)nc2[nH]c3cc(C(=O)OC)ccc3c12)CN1CCCCC1 (stereo not drawn) [Cmpd 52]	< 100
CCN(CCCN1CCCCC1)c1nc(Cc2ccccc2)nc2[nH]c3cc(C(=O)OC)ccc3c12 [Cmpd 53]	> 1000
COC(=O)c1ccc2c(c1)[nH]c1nc(Cc3ccccc3)nc(NCCCN(C)CCCNC(=O)CCCC[C@@H]3SC[C@@H]4NC(=O)N[C@@H]43)c12 [Cmpd 56]	250 to 500
COC(=O)c1ccc2c(c1)[nH]c1nc(C)nc(NCCCN3CCCCC3)c12 [Cmpd 58]	> 1000
CNC(=O)c1ccc2c(c1)[nH]c1nc(Cc3ccccc3)nc(NCCCN3CCCCC3)c12 [Cmpd 59]	> 1000
COC(=O)c1cnc2c(c1)[nH]c1nc(Cc3ccccc3)nc(NCCCN3CCCCC3)c12 [Cmpd 60]	250 to 500
COC(=O)c1cnc2c(c1)[nH]c1nc(Cc3ccsc3)nc(NCCCN3CCCCC3)c12 [Cmpd 61]	250 to 500
COC(=O)c1cnc2c(c1)[nH]c1nc(Cc3ccsc3)nc(SCCCN3CCCCC3)c12 [Cmpd 62]	500 to 1000
COC(=O)c1cnc2c(c1)[nH]c1nc(Cc3cccc(OC)c3)nc(NCCCN3CCCCC3C)c12 (stereo not drawn) [Cmpd 63]	250 to 500
CCN(CC)CCNc1nc(Cc2cccc(OC)c2)nc2[nH]c3cc(C(=O)OC)cnc3c12 [Cmpd 64]	500 to 1000

Structure (SMILES)	EC50 [nM]
COC(=O)c1cnc2c(c1)[nH]c1nc(Cc3ccccc3)nc(N(C)CCCN3CCCCC3)c12 [Cmpd 65]	< 100
COC(=O)c1cnc2c(c1)[nH]c1nc(Cc3ccccc3C)nc(NCCCN3CCCCC3)c12 [Cmpd 66]	250 to 500
COC(=O)c1cnc2c(c1)[nH]c1nc(Cc3ccccc3C)nc(NCCCN3CCCC3)c12 [Cmpd 67]	250 to 500
CNCCCNc1nc(Cc2ccccc2C)nc2[nH]c3cc(C(=O)OC)cnc3c12 [Cmpd 68]	500 to 1000
Cn1nnc(-c2cnc3c(c2)[nH]c2nc(Cc4ccccc4)nc(N[C@H]4CC[C@H](N)CC4)c23)n1 [Cmpd 69]	250 to 500
COC(=O)c1cnc2c(c1)[nH]c1nc(Cc3cccc(F)c3)nc(NCCCN3CCCCC3)c12 [Cmpd 70]	> 1000
COC(=O)c1cnc2c(c1)[nH]c1nc(Cc3cccc(F)c3)nc(NCCCN(C)CCCN)c12 [Cmpd 71]	250 to 500
CNCCCNc1nc(Cc2cccc(F)c2)nc2[nH]c3cc(C(=O)OC)cnc3c12 [Cmpd 72]	> 1000
COC(=O)c1cnc2c(c1)[nH]c1nc(Cc3ccccc3)nc(NCC(C)CN(C)C)c12 (stereo not drawn) [Cmpd 73]	500 to 1000
COC(=O)c1cnc2c(c1)[nH]c1nc(Cc3ccccc3)nc(N3CCC(N(C)C)CC3)c12 [Cmpd 74]	100 to 250
CCN(CC)CCN(CC)c1nc(Cc2ccccc2)nc2[nH]c3cc(C(=O)OC)cnc3c12 [Cmpd 75]	250 to 500
COC(=O)c1ccc2c(c1)[nH]c1ccnc(NCCCN3CCCCC3)c12 [Cmpd 76]	> 1000
COC(=O)c1ccc2c(c1)[nH]c1cc(Cc3ccccc3)nc(NCCCN3CCCCC3)c12 [Cmpd 77]	< 100
COC(=O)c1ccc2c(c1)[nH]c1cc(Cc3ccccc3)nc(NCCN3CCCC3)c12 [Cmpd 78]	< 100
COC(=O)c1ccc2c(c1)[nH]c1cc(Cc3ccccc3)nc(N(C)CCCN(C)C)c12 [Cmpd 79]	< 100
Cn1nnc(-c2ccc3c(c2)[nH]c2cc(Cc4ccccc4)nc(NCCCN4CCCCC4)c23)n1 [Cmpd 80]	100 to 250
COC(=O)c1ccc2c(c1)[nH]c1cc(Cc3cccc(OC)c3)nc(NCCCCN3CCCC3)c12 [Cmpd 81]	< 100
COC(=O)c1ccc2c(c1)[nH]c1cc(Cc3cccc(O)c3)nc(NCCCCN3CCCC3)c12 [Cmpd 82]	< 100
COC(=O)c1ccc2c(c1)[nH]c1cc(Cc3ccsc3)nc(NCCN(C)CCNC(=O)OC(C)(C)C)c12 [Cmpd 83]	> 1000
COC(=O)c1ccc2c(c1)[nH]c1cc(Cc3cccnc3)nc(NCCCN3CCOCC3)c12 [Cmpd 84]	500 to 1000
COC(=O)c1ccc2c(c1)[nH]c1cc(Cc3ccsc3)nc(NCCCN3CCCCC3)c12 [Cmpd 85]	100 to 250
COC(=O)c1ccc2c(c1)[nH]c1cc(Cc3cccnc3)nc(N3CCC(N4CCCC4)CC3)c12 [Cmpd 86]	> 1000
CNCCCN(C)c1nc(Cc2cccnc2)cc2[nH]c3cc(C(=O)OC)ccc3c12 [Cmpd 87]	> 1000

same assay, conditions: concentration that results in a 50% increase in CD34+CD45RA- cell count compared to vehicle cultures (DMSO)

Structure (SMILES)	Biological data (EC50)*
COC(=O)c1ccc2c(c1)[nH]c1nc(C(O)c3ccccc3)nc(NCCCN3CCCCC3)c12 (stereo not drawn) [Cmpd 29]	F (F = compound showed >1.3 fold expansion)
COC(=O)c1ccc2c(c1)[nH]c1nc(C(=O)c3ccccc3)nc(NCCCN3CCCCC3)c12 [Cmpd 30]	F (F = compound showed >1.3 fold expansion)
CCOC(=O)c1ccc2c(c1)[nH]c1nc(Cc3ccccc3)nc(NCCCN3CCCCC3)c12 [Cmpd 33]	F (F = compound showed >1.3 fold expansion)
Cc1noc(-c2ccc3c(c2)[nH]c2nc(Cc4ccccc4)nc(NCCCN4CCCCC4)c23)n1.Cl [Cmpd 42]	F (F = compound showed >1.3 fold expansion)
COC(=O)c1ccc2c(c1)[nH]c1nc(Cc3ccccc3)nc(CCCCN3CCCCC3)c12 [Cmpd 48]	F (F = compound showed >1.3 fold expansion)
C#CCNCCCN(C)CCCNc1nc(Cc2ccccc2)nc2[nH]c3cc(C(=O)OC)ccc3c12 [Cmpd 54]	F (F = compound showed >1.3 fold expansion)
COC(=O)c1ccc2c(c1)[nH]c1nc(Cc3cccc(C4(C(F)(F)F)N=N4)c3)nc(NCCCN(C)CCCNC(=O)CCCCC3SCC4NC(=O)NC43)c12 (stereo not drawn) [Cmpd 57]	F (F = compound showed >1.3 fold expansion)

same assay, conditions: concentration that results in a 50% increase in CD34+CD45RA- cell count compared to vehicle cultures (DMSO); read-out: Biological data (EC50)*

Structure (SMILES)	EC50 [nM]
COC(=O)c1ccc2c(c1)[nH]c1ncnc(NC3CCC(N)CC3)c12 (stereo not drawn) [Cmpd 44]	100 to 250
COC(=O)c1ccc2c(c1)[nH]c1ncnc(NC3CCC(N)CC3)c12 (stereo not drawn) [Cmpd 45]	250 to 500
